From the supplement of paper PMC10307832

Experiments:
Test in all cases: relative viability (nuclei count vs DMSO), 5 days (fraction); higher = more cells survive
[1] = compound: C[C@]12O[C@H](C[C@]1(O)CO)n1c3ccccc3c3c4c(c5c6ccccc6n2c5c31)CNC4=O [Lestaurtinib] + C[C@]1(O)C[C@@H](c2nc(-c3ccc4ccc(-c5ccccc5)nc4c3)c3c(N)nccn32)C1 [Linsitinib] (partner 1 µM)
Summary of the method: (§1)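 Medians of duplicate plates are given as relative viability. That measure is the nuclei count in treated wells divided by the count in vehicle wells. Counts were taken on 4× images of lung cancer cell lines in 1536-well plates, 5 days after pin-tool dosing the day after seeding with one drug alone or a fixed anchor-drug dose plus five library-drug doses (not always all listed) in √10 steps.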

[2] = compound: C[C@]12O[C@H](C[C@]1(O)CO)n1c3ccccc3c3c4c(c5c6ccccc6n2c5c31)CNC4=O [Lestaurtinib] + Nc1ncn([C@H]2C[C@H](O)[C@@H](CO)O2)c(=O)n1 [Decitabine] (partner 2 µM)
Summary of the method: as §1

[3] = compound: C1=CC(=CC=C1C2=CC(=C(S2)NC(=O)N)C(=O)N)F [TPCA-1] + COc1cccc2cc(-c3nc([C@H]4CC[C@H](C(=O)O)CC4)n4ncnc(N)c34)[nH]c12 [OSI-027] (partner 0.5 µM)
Summary of the method: as §1

[4] = compound: C1/C(=C\C2=CC=CS2)/C(=O)/C(=C/C3=CC=CS3)/C1 + Cc1cc(Nc2cc(N3CCN(C)CC3)nc(Sc3ccc(NC(=O)C4CC4)cc3)n2)n[nH]1 [Tozasertib] (partner 0.1 µM)
Summary of the method: as §1

| Cell Line | relative viability ([1]; first compound 0.005 µM) | relative viability ([1]; first compound 0.01581 µM) | relative viability ([1]; first compound 0.05 µM) | relative viability ([1]; first compound 0.1581 µM) | relative viability ([1]; first compound 0.5 µM) | relative viability ([2]; first compound 0.005 µM) | relative viability ([2]; first compound 0.01581 µM) | relative viability ([2]; first compound 0.05 µM) | relative viability ([2]; first compound 0.1581 µM) | relative viability ([2]; first compound 0.5 µM) | relative viability ([3]; first compound 0.04 µM) | relative viability ([3]; first compound 0.1265 µM) | relative viability ([3]; first compound 0.4 µM) | relative viability ([3]; first compound 1.265 µM) | relative viability ([3]; first compound 4 µM) | relative viability ([4]; first compound 0.2 µM) | relative viability ([4]; first compound 0.6325 µM) | relative viability ([4]; first compound 2 µM) | relative viability ([4]; first compound 6.325 µM) | relative viability ([4]; first compound 20 µM) |
| --- | --- | --- | --- | --- | --- | --- | --- | --- | --- | --- | --- | --- | --- | --- | --- | --- | --- | --- | --- | --- |
| NCI-H520 | 0.944 | 1.14 | 0.632 | 0.549 | 0.256 | 0.62 | 0.59 | 0.502 | 0.327 | 0.247 | 0.302 | 0.234 | 0.19 | 0.231 | 0.243 | 0.531 | 0.506 | 0.458 | 0.398 | 0.406 |
| LCLC-97TM1 | 0.2 | 0.172 | 0.153 | 0.135 | 0.113 |  | 0.242 | 0.207 | 0.245 | 0.257 | 0.584 | 0.323 | 0.486 | 0.411 | 0.283 | 0.239 | 0.233 | 0.227 | 0.213 | 0.195 |
| NCI-H1793 | 0.897 | 0.816 | 0.467 | 0.876 | 0.566 | 0.506 | 0.481 | 0.459 | 0.542 | 0.421 | 0.233 |  | 0.275 | 0.285 | 0.139 | 0.394 | 0.297 | 0.347 | 0.338 | 0.258 |
| NCI-H3122 | 1.11 | 1.09 | 1.01 | 1.08 | 0.527 | 0.47 | 0.582 | 0.465 | 0.453 | 0.424 | 1.29 | 0.837 | 0.954 | 0.854 | 0.517 | 0.393 | 0.498 | 0.396 | 0.391 | 0.442 |
| PC-14 | 0.933 | 1.04 | 0.543 | 0.613 | 0.578 | 0.244 | 0.223 | 0.237 | 0.207 | 0.0672 | 0.954 | 0.717 | 0.951 | 0.593 | 0.341 | 0.604 | 0.59 | 0.597 | 0.571 | 0.595 |
| EPLC-272H | 1.13 | 1.05 | 0.517 | 0.54 | 0.577 | 0.334 | 0.354 | 0.327 | 0.278 | 0.3 | 0.346 | 0.236 | 0.305 | 0.277 | 0.288 | 0.293 | 0.325 | 0.322 | 0.283 | 0.287 |
| A-427 | 1.17 | 1.12 | 1.01 | 0.631 | 0.658 | 0.548 | 0.544 | 0.518 | 0.347 | 0.2 | 0.528 | 0.359 | 0.546 | 0.332 | 0.195 | 0.185 | 0.22 | 0.248 | 0.176 | 0.216 |
